Source: patent US20060223846A1, “Aza-bridged-bicyclic amino acid derivatives as alpha4 integrin antagonists” (priority 2005, published 2006)
pIC50: −log10 of the molar value.

Assays:
[1] = target: α4β1 (Homo sapiens, UniProt P05556+P13612); test: Ramos Cell Adhesion Assay (α4β1 Mediated Adhesion/VCAM-1); format: cell-based; parameters: Ramos cells, (50 μL at 2×10^6/mL) labeled with 5 μM Calcein AM; endogenous in cells; host or cells: Ramos cells; settings: Ramos cells on recombinant hVCAM-1; read-out: α4β1 IC50
Protocol: (§1) Ramos Cell Adhesion Assay α4β1 Mediated Adhesion/VCAM-1) Immulon 9.6 well plates (Dynex) were coated with 100 μL recombinant hVCAM-1 at 4.0 μg/mL in 0.05 M NaCO3 buffer pH 9.0 overnight at 4° C. (R&D Systems). Plates were washed 3 times in PBS with 1% BSA and blocked for 1 h @ room temperature in this buffer. PBS was removed and compounds to be tested (50 μL) were added at 2× concentration. Ramos cells, (50 μL at 2×10^6/mL) labeled with 5 μM Calcein AM (Molecular Probes) for 1 h at 37° C., were added to each well and allowed to adhere for 1 h at room temperature. Plates were washed 3× in PBS+1% BSA and cells were lysed for 15 minutes in 100 μL of 1 M Tris pH 8.0 with 1% SDS. The plate was read at 485 nm excitation and 530 nm emission.

[2] = target: T1, human α4β7 (Homo sapiens, UniProt P13612+P26010); test: α4β7-K562 Cell Adhesion Assay (α4β7 Mediated Adhesion/VCAM-1); format: cell-based; settings: K562 cells expressing human α4β7 on recombinant hVCAM-1; read-out: α4β7 IC50
T1 construct: expressed in transfected cells
T1 sequence (P13612 34-1032): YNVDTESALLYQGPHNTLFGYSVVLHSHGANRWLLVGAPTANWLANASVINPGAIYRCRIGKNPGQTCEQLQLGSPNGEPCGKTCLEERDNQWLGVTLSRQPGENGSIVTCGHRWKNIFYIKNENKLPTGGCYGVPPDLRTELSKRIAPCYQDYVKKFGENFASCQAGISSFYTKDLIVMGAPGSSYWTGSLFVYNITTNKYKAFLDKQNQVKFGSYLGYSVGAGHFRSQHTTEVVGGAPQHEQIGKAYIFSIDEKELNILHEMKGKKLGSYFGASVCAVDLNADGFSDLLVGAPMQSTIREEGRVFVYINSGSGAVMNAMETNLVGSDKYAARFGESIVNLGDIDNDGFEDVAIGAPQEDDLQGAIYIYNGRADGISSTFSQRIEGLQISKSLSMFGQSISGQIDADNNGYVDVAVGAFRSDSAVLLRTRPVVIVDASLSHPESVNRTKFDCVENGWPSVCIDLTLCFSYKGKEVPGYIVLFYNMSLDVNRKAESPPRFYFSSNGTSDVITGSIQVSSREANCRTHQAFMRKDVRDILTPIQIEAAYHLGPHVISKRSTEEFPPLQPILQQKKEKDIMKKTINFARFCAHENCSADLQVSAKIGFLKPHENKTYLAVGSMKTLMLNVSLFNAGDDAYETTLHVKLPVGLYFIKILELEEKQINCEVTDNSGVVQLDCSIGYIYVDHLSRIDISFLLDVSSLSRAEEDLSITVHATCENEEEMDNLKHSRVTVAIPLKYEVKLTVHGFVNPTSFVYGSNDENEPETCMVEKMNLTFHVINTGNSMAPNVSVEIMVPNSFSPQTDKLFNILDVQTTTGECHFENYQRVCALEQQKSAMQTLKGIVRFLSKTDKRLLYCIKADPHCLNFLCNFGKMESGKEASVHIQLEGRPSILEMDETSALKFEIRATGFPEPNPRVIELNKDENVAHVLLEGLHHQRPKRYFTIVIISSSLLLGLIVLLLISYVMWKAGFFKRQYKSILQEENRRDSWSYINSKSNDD
T1 sequence (P26010 20-798): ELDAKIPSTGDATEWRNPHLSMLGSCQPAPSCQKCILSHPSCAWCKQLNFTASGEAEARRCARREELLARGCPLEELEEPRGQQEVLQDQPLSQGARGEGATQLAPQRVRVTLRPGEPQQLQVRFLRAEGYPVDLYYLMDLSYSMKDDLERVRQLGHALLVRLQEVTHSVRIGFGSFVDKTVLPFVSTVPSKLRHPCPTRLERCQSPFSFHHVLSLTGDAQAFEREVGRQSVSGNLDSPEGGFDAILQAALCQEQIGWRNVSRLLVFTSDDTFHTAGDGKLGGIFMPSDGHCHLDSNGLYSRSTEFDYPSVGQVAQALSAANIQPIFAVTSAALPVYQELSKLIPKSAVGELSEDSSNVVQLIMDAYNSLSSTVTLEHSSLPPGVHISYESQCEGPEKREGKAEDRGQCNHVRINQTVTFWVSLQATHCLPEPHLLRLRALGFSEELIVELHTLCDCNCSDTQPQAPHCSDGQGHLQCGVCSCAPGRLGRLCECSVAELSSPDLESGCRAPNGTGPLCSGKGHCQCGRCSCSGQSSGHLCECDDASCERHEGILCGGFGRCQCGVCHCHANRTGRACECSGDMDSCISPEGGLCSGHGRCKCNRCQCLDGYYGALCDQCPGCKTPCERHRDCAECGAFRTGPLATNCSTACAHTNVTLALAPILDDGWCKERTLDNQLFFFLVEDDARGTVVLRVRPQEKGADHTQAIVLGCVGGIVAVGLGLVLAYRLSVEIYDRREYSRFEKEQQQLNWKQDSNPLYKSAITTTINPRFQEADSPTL
Protocol: as §1, with “α4β7-K562” for “Ramos”, “(α4β7” for “α4β1”, “96” for “9.6”, “System).” for “Systems).”, “A stable cell line of K562 cells expressing human α4β7,” for “Ramos cells,”

Sequence of α4β1 (P05556 21-798, one chain of several): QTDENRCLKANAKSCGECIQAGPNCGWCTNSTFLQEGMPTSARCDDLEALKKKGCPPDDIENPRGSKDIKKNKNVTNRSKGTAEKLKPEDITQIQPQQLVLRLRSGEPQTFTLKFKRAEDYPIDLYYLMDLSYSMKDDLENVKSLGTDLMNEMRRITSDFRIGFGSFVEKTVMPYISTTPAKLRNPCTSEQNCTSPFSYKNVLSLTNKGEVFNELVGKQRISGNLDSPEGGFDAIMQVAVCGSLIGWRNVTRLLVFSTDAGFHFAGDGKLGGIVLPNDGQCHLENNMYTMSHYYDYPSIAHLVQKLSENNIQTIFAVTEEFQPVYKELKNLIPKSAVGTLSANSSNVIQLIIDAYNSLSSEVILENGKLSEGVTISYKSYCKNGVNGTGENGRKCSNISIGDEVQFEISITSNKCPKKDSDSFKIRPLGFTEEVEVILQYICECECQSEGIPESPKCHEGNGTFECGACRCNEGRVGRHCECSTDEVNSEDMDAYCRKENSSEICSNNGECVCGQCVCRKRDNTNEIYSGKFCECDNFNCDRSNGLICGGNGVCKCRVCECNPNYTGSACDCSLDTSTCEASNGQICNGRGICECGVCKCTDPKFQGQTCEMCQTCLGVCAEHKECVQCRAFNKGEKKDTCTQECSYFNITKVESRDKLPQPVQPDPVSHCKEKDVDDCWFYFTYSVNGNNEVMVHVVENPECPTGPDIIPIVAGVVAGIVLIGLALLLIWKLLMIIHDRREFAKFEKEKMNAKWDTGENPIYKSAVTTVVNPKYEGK

Row | Structure (SMILES) | pIC50 [1] | pIC50 [2]
1 | CC(C)(C)CC(=O)N1C2CCC(CC2)C1C(=O)NC(Cc1ccc(NC(=O)c2c(Cl)cncc2Cl)cc1)C(=O)O (stereo not drawn) [Cpd 27] | 6.41 | 6.08
2 | O=C(Nc1ccc(CC(NC(=O)C2C3CCC(CC3)N2C(=O)c2ccccc2Oc2ccccc2)C(=O)O)cc1)c1c(Cl)cncc1Cl (stereo not drawn) [Cpd 63] | 7.26 | 7.18
3 | CC(C)CCC(=O)N1C2CCC(CC2)C1C(=O)NC(Cc1ccc(NC(=O)c2c(Cl)cncc2Cl)cc1)C(=O)O (stereo not drawn) [Cpd 38] | 8.30 | 7.82
4 | CCCCCC12CCC(C(=O)N3C4CCC(CC4)C3C(=O)NC(Cc3ccc(NC(=O)c4c(Cl)cncc4Cl)cc3)C(=O)O)(CC1)CC2 (mixture of isomers) [Cpd 13] | < 5.30 | < 5.30
5 | Cc1ccnn1CC(=O)N1C2CCC(CC2)C1C(=O)NC(Cc1ccc(NC(=O)c2c(Cl)cncc2Cl)cc1)C(=O)O (stereo not drawn) [Cpd 15] | 7.16 | 7.41
6 | CC(C)(C)CC(=O)N1C2CCC(CC2)C1C(=O)NC(Cc1ccc(NC(=O)c2c(Cl)cncc2Cl)cc1)C(=O)O (single isomer, unassigned) [Cpd 34] | 7.85 | 7.33
7 | O=C(Nc1ccc(CC(NC(=O)C2C3CCC(CC3)N2C(=O)C#Cc2ccccc2)C(=O)O)cc1)c1c(Cl)cncc1Cl (stereo not drawn) [Cpd 57] | 8.05 | 7.57
8 | O=C(Nc1ccc(CC(NC(=O)C2C3CCC(CC3)N2C(=O)C=Cc2ccc3c(c2)OCO3)C(=O)O)cc1)c1c(Cl)cncc1Cl (stereo not drawn) [Cpd 46] | < 5.30 | 6.32
9 | O=C(Nc1ccc(CC(NC(=O)C2C3CCC(CC3)N2C(=O)CCCC2CCCCC2)C(=O)O)cc1)c1c(Cl)cncc1Cl (stereo not drawn) [Cpd 37] | 7.39 | 6.60
10 | O=C(Nc1ccc(CC(NC(=O)C2C3CCC(CC3)N2C(=O)Cc2csc3ccccc23)C(=O)O)cc1)c1c(Cl)cncc1Cl (stereo not drawn) [Cpd 36] | 7.26 | 7.18
11 | O=C(Nc1ccc(CC(NC(=O)C2C3CCC(CC3)N2C(=O)CCc2ccc(C(F)(F)F)cc2)C(=O)O)cc1)c1c(Cl)cncc1Cl (stereo not drawn) [Cpd 50] | 8.22 | 7.12

Further lines, results first:

Row | pIC50 [1] | pIC50 [2] | Structure (SMILES)
12 | 7.14 | 6.42 | O=C(Nc1ccc(CC(NC(=O)C2C3CCC(CC3)N2C(=O)NCc2ccccc2)C(=O)O)cc1)c1c(Cl)cncc1Cl (stereo not drawn) [Cpd 25]
13 | 6.23 | 6.13 | O=C(Nc1ccc(CC(NC(=O)C2C3CCC(CC3)N2C(=O)Nc2ccc(Cl)cc2)C(=O)O)cc1)c1c(Cl)cncc1Cl (stereo not drawn) [Cpd 24]
14 | 6.42 | 6.17 | O=C(Nc1ccc(CC(NC(=O)C2C3CCC(CC3)N2C(=O)Nc2ccccc2Cl)C(=O)O)cc1)c1c(Cl)cncc1Cl (stereo not drawn) [Cpd 22]
15 | 6.23 | 6.91 | Cc1ccc(NC(=O)N2C3CCC(CC3)[C@H]2C(=O)N[C@@H](Cc2ccc(NC(=O)c3c(Cl)cncc3Cl)cc2)C(=O)O)cc1 [Cpd 21, 3-{4-[(3,5-dichloro-pyridine-4-carbonyl)-amino]-phenyl}-2-[(2-p-tolylcarbamoyl-2-aza-bicyclo[2.2.2]octane-3-carbonyl)-amino]-propionic acid]
16 | 6.81 | 7.03 | COc1cccc(CC(=O)N2C3CCC(CC3)C2C(=O)NC(Cc2ccc(NC(=O)c3c(Cl)cncc3Cl)cc2)C(=O)O)c1 (stereo not drawn) [Cpd 1]
17 | 8.52 | 7.34 | O=C(Nc1ccc(CC(NC(=O)C2C3CCC(CC3)N2C(=O)CCc2ccccc2F)C(=O)O)cc1)c1c(Cl)cncc1Cl (stereo not drawn) [Cpd 52]
18 | 8.52 | 7.62 | O=C(Nc1ccc(CC(NC(=O)C2C3CCC(CC3)N2C(=O)CCc2ccc(Cl)cc2)C(=O)O)cc1)c1c(Cl)cncc1Cl (stereo not drawn) [Cpd 51]
19 | 6.63 | 6.41 | O=C(Nc1ccc(CC(NC(=O)C2C3CCC(CC3)N2C(=O)Cc2c(Cl)cccc2Cl)C(=O)O)cc1)c1c(Cl)cncc1Cl (stereo not drawn) [Cpd 6]
20 | 6.36 | 6.82 | O=C(Nc1ccc(CC(NC(=O)C2C3CCC(CC3)N2C(=O)c2ccccc2F)C(=O)O)cc1)c1c(Cl)cncc1Cl (mixture of isomers) [Cpd 9]
21 | 8.05 | 7.62 | O=C(Nc1ccc(CC(NC(=O)C2C3CCC(CC3)N2C(=O)OCc2ccccc2)C(=O)O)cc1)c1c(Cl)cncc1Cl (stereo not drawn) [Cpd 64]
